According to paper PMC12607321, “Sumac Polyphenols as Pan-Herpesvirus Inhibitors” (International Journal of Molecular Sciences, 2025):
Values after ≈ are worked out from the molar mass of the structure shown. Values joined by “and” are separate entries in the source; they are usually repeats but may differ in a detail not shown here. Identical values can stand only once. Like-named read-outs stand apart in the source and are kept apart here.

Tests used:
CMVTowne strain = tested on: CMVTowne strain; parameters: method as in ref 35 (Kim et al.); settings: human foreskin fibroblasts, ref 35 (Kim et al.); cited from earlier work
[1] = Cytotoxicity (MTT) in HELF cells; settings: human
[2] = Cytotoxicity (MTT) in Vero E6 cells (HSV system); type: cell-based; settings: African green monkey
in vitro [3] = settings: dog
HSV-2BH = assay: Antiviral activity in Vero E6 cells infected with HSV-2 (cytopathic effect); type: cell-based
B95-8 cells = assay: Cytotoxicity (MTT) in B95-8 cells; type: cell-based, cotton-top tamarin (Saguinus oedipus); settings: B95-8 cells, MTT, 72 h
Procedure: (§1) In each virus–cell system, cytotoxicity ranges were determined for polyphenols and reference compounds using MTT assay. Half-maximal cytotoxic concentrations (CC50) were determined from the curves of the dependence of the proportion of cells retaining viability after incubation with the compound (relative to the number of cells incubated in the absence of the compound) on its concentration, using nonlinear regression equations (4 parameters).
(§2) To assess cytotoxicity, B95-8 cells (5 × 10^5 per 1 mL) were incubated with polyphenols at 37 °C in an atmosphere of 5% CO2 for 72 h. The experiment was then carried out as described in Section 4.3.5.

[4] = tested on: influenza A virus/California/07/2009 (H1N1) pdm; assay: microbe, parasite or virus in culture; type: cell-based; settings: for IC50: IAV H1N1pdm in MDCK cells
CMV (strain AD169) [5] = assay: Anti-CMV, pre-inoculation setup (plaques) in HELF; type: cell-based, human cytomegalovirus
CMV (strain AD169) [6] = assay: Anti-CMV, post-inoculation setup: inhibition of intracellular replication (cells stained for viral proteins) in HELF; type: cell-based, human cytomegalovirus
EBVB95-8 = assay: Inhibition of EBV replication in B95-8 cells (EBV genomic DNA, real-time PCR); type: cell-based, Epstein–Barr virus; settings: for IC50: human gammaherpesvirus 4, B-95-8, 48 h, read-out: IC50, Inhibition on EBV Replication
HSV-1L2 = assay: Antiviral activity in Vero E6 cells infected with HSV-1 (cytopathic effect); type: cell-based
CMV (strain AD169) [7] = assay: Anti-CMV, post-inoculation setup: inhibition of infectious virus production (plaques from conditioned medium) in HELF; type: cell-based, human cytomegalovirus
HIV-1 (HIVIIIB) = assay: microbe, parasite or virus in culture; type: cell-based; settings: Human immunodeficiency virus 1, MT4; HIV-1 IIIB in MT-4 cells
in vitro [8] = settings: human
MDCK cells = settings: MTT
Vero E6 cells = assay: Cytotoxicity (MTT) in Vero E6 cells (HSV system); type: cell-based
SARS-CoV-2 = tested on: SARS-CoV-2; parameters: method as in doi:10.2139/ssrn.4000447; settings: geraniin isolated from Elaeocarpus sylvestris; cited from earlier work
IAV = settings: cited from earlier work
[9] = tested on: SARS-CoV-2 (HCoV-19/Russia/Moscow-PMVL-12/2020, EPI_ SL_572398); assay: microbe, parasite or virus in culture; type: cell-based; settings: for IC50: Severe acute respiratory syndrome coronavirus 2, Vero C1008; for Δ(lgTCID50)max: maximum difference in virus titers, Vero E6 cells
[10] = Cytotoxicity (MTT) in B95-8 cells; type: cell-based, cotton-top tamarin (Saguinus oedipus); settings: cotton-top tamarin (Saguinus oedipus)
Procedure: as §1, §2

HIV-1 = tested on: HIV-1; parameters: method as in ref 103 (Notka et al.); settings: ref 103 (Notka et al.); cited from earlier work
[11] = Cytotoxicity (MTT) in Vero E6 cells (SARS-CoV-2 system); type: cell-based; settings: African green monkey
Procedure: First, we performed biological testing of Rutan and geraniin against IAV and SARS-CoV-2. […] In addition, we evaluated geraniin against SARS-CoV-2 (in Vero E6 cells), and HIV-1 (in MT-4 cells) to confirm its activity. In all experiments three parameters were determined: concentrations of a drug that suppressed virus replication (IC50) or decreased cell viability (CC50) by 50% as well as their ratio—the selectivity index (SI, CC50/IC50 [123]).
as §1

in vitro [12] = settings: human; remark: listed apart in the source
[13] = Influenza A virus, H1N1, read-out: IC50
[14] = Human betaherpesvirus 5, AD169, HELF
[15] = Human alphaherpesvirus 2, Vero C1008, HSV-2BH, Vero E6, 0.1 PFU/cell, read-out: IC50
[16] = Human alphaherpesvirus 1, Vero C1008, HSV-1L2, Vero E6, 0.1 PFU/cell, read-out: IC50
[17] = Human betaherpesvirus 5, post-inoculation setup, CMV AD169 in HELF

O=C(OC[C@H]1O[C@@H](OC(=O)c2cc(O)c(O)c(O)c2)[C@H](OC(=O)c2cc(O)c(O)c(O)c2)[C@@H](OC(=O)c2cc(O)c(O)c(O)c2)[C@@H]1OC(=O)c1cc(O)c(O)c(O)c1)c1cc(O)c(O)c(O)c1 [R5, 1,2,3,4,6-penta-O-galloyl-β-D-glucose]
activity against CMV (in words) (CMVTowne strain): failed to detect the activity | CC50 at 72 h [1]: 150 µg/mL (≈ 159 µM) | CC50 [2]: 188 µg/mL (≈ 200 µM) | CC50 (in vitro [3]): 86.3 µg/mL (≈ 91.8 µM) | IC95 (HSV-2BH): 25.0 µg/mL (≈ 26.6 µM) | IC50 (HSV-2BH; Human alphaherpesvirus 2, Vero C1008, read-out: IC50): 12.5 µg/mL (≈ 13.3 µM) | CC50 (B95-8 cells): 85 µg/mL (≈ 90.4 µM) | Δ(lgTCID50)max [4]: 1.5 | IC50 [4, 13]: 8.85 µg/mL (≈ 9.41 µM) | IC50 (CMV (strain AD169) [5]; [14]): 2.2 µg/mL (≈ 2.34 µM) | reduction of the number of infected HELF (CMV (strain AD169) [6]): 71% and 86% | IC50 (CMV (strain AD169) [6]; [14]): 7.4 µg/mL (≈ 7.87 µM) | decrease of the level of intracellular viral DNA (EBVB95-8; 10 μg/mL, 48 h, B95-8 cells): 39 ± 5% | IC50 (EBVB95-8): > 10 µg/mL | IC95 (HSV-1L2): 25.0 µg/mL (≈ 26.6 µM) | IC50 (HSV-1L2; Human alphaherpesvirus 1, Vero C1008, read-out: IC50): 12.5 µg/mL (≈ 13.3 µM) | IC50 (CMV (strain AD169) [7]; [14]): 6.4 µg/mL (≈ 6.8 µM)

Cc1cn([C@H]2C[C@H](N=[N+]=[N-])[C@@H](CO)O2)c(=O)[nH]c1=O [Azidothymidine, reference compound]
IC50 (HIV-1 (HIVIIIB)): 0.002 µg/mL (≈ 0.00748 µM) | CC50 (in vitro [8]): 3.6 µg/mL (≈ 13.5 µM)

O=C(O)P(=O)(O)O [Foscarnet, reference compound]
CC50 [2]: > 125 µg/mL | IC95 (HSV-2BH; HSV-2BH, Vero E6, 0.1 PFU/cell): 31.25 µg/mL (≈ 248 µM) | IC50 (HSV-2BH; [15]): 7.8 µg/mL (≈ 61.9 µM) | IC95 (HSV-1L2; HSV-1L2, Vero E6, 0.1 PFU/cell): 62.5 µg/mL (≈ 496 µM) | IC50 (HSV-1L2; [16]): 15.6 µg/mL (≈ 124 µM)

O=C(OC[C@H]1O[C@@H](OC(=O)c2cc(O)c(O)c(O)c2)[C@H](OC(=O)c2cc(O)c(O)c(OC(=O)c3cc(O)c(O)c(O)c3)c2)[C@@H](OC(=O)c2cc(O)c(O)c(OC(=O)c3cc(O)c(O)c(O)c3)c2)[C@@H]1OC(=O)c1cc(O)c(O)c(OC(=O)c2cc(O)c(O)c(O)c2)c1)c1cc(O)c(O)c(O)c1 [R8, 2,3,4-bis-O-galloyl-1,6-di-O-galloyl-β-D-glucose]
CC50 (MDCK cells): 233 µg/mL (≈ 167 µM) | CC50 (Vero E6 cells): 106.00 µg/mL (≈ 75.9 µM) | IC50 (HSV-2BH; HSV-2BH, Vero E6, 0.1 PFU/cell): 31.25 µg/mL (≈ 22.4 µM) | IC95 (HSV-2BH; HSV-2BH, Vero E6, 0.1 PFU/cell): 62.5 µg/mL (≈ 44.7 µM) | CC50 (B95-8 cells): >20 µg/mL | Δ(lgTCID50)max [4]: 4.25 | IC50 [4]: 0.8 µg/mL (≈ 0.573 µM) | IC50 (HSV-1L2; HSV-1L2, Vero E6, 0.1 PFU/cell): 10.0 µg/mL (≈ 7.16 µM) | IC95 (HSV-1L2; HSV-1L2, Vero E6, 0.1 PFU/cell): 31.25 µg/mL (≈ 22.4 µM)

O=C1O[C@H]2C3OC(=O)c4cc(O)c(O)c(O)c4-c4c(cc(O)c(O)c4O)C(=O)OC[C@H]2O[C@@H](OC(=O)c2cc(O)c(O)c(O)c2)[C@@H]3OC(=O)c2cc(O)c(O)c3c2[C@@H]2C1=CC(=O)[C@](O)(O3)C2(O)O [Geraniin, (1R,7R,26R,28S,29R,38R)-1,13,14,15,18,19,20,34,35,39,39-Undecahydroxy-2,5,10,23,31-pentaoxo-6,9,24,27,30,40-hexaoxaoctacyclo [34.3.1.0~4,38~.0~7,26~.0~8,29~.0~11,16~.0~17, 22~.0~32,37~]tetraconta-3,11,1 3,15,17,19,21,32,34,36-decaen-28-yl 3,4,5-trihydroxybenzoate]
IC50 (HIV-1 (HIVIIIB)): 1.6 µg/mL (≈ 1.68 µM) | concentration range suppressing virus replication (SARS-CoV-2): 1 to 25 µg/mL | result for geraniin against IAV compared with IC50 (IAV; ref 72 (Joo et al.)): 5.3 µg/mL | result for geraniin against IAV compared with IC50 (IAV; ref 96 (Choi et al.)): 34 µg/mL | IC50 ([9]; SARS-CoV-2 in Vero E6 cells, read-out: IC50): 5.2 µg/mL (≈ 5.46 µM) | Δ(lgTCID50)max [9]: 4.75 | CC50 [2]: 65.9 µg/mL (≈ 69.2 µM) | CC50 (in vitro [3]): 288 µg/mL (≈ 302 µM) | IC95 (HSV-2BH; HSV-2BH, Vero E6, 0.1 PFU/cell): 6.25 µg/mL (≈ 6.56 µM) | IC50 (HSV-2BH; [15]): 0.39 µg/mL (≈ 0.409 µM) | CC50 at 72 h ([10]; B95-8 cells, MTT, 72 h, read-out: CC50): 63 µg/mL (≈ 66.1 µM) | IC50 (HIV-1): 0.46 µg/mL (≈ 0.483 µM) | Δ(lgTCID50)max [4]: 4.5 | IC50 [4, 13]: 10.8 µg/mL (≈ 11.4 µM) | activity against CMV (in words) (CMV (strain AD169) [6]; CMV AD169 in HELF): did not interfere | activity against EBV (in words) (EBVB95-8; B95-8 cells): did not interfere | IC95 (HSV-1L2; HSV-1L2, Vero E6, 0.1 PFU/cell): 1.56 µg/mL (≈ 1.64 µM) | IC50 (HSV-1L2; [16]): 1.2 µg/mL (≈ 1.26 µM) | CC50 [11]: 65.4 µg/mL (≈ 68.7 µM) | CC50 (in vitro [8]): 41 µg/mL (≈ 43 µM)

Nc1nc(O)c2ncn(COC(CO)CO)c2n1 [Ganciclovir, reference compound]
CC50 at 72 h (in vitro [12]): 185 µg/mL (≈ 725 µM) | CC50 at 72 h [10]: > 1000 µg/mL | SI, Pre-Inoculation Setup (CMV (strain AD169) [5]; pre-inoculation setup, CC50/IC50): No activity | IC50, Pre-Inoculation Setup (CMV (strain AD169) [5]; pre-inoculation setup, CMV AD169 in HELF): No activity | IC50 (CMV (strain AD169) [6]; [17]): 0.22 µg/mL (≈ 0.862 µM) | IC50 (EBVB95-8): 100 µg/mL (≈ 392 µM) | IC50 (CMV (strain AD169) [7]; [17]): < 0.1 µg/mL

O=C(OC[C@H]1O[C@@H](OC(=O)c2cc(O)c(O)c(O)c2)[C@H](OC(=O)c2cc(O)c(O)c(O)c2)[C@@H](OC(=O)c2cc(O)c(O)c(OC(=O)c3cc(O)c(O)c(O)c3)c2)[C@@H]1OC(=O)c1cc(O)c(O)c(O)c1)c1cc(O)c(O)c(O)c1 [R6, 3-bis-O-galloyl-1,2,4,6-tetra-O-galloyl-β-D-glucose]
CC50 (MDCK cells): 93.13 µg/mL (≈ 85.2 µM) | CC50 (Vero E6 cells): 69.62 µg/mL (≈ 63.7 µM) | IC50 (HSV-2BH; HSV-2BH, Vero E6, 0.1 PFU/cell): 31.25 µg/mL (≈ 28.6 µM) | IC95 (HSV-2BH; HSV-2BH, Vero E6, 0.1 PFU/cell): 50.0 µg/mL (≈ 45.8 µM) | CC50 (B95-8 cells): >20 µg/mL | Δ(lgTCID50)max [4]: 1.0 | IC50 [4]: >50 µg/mL | IC50 (HSV-1L2; HSV-1L2, Vero E6, 0.1 PFU/cell): 25.0 µg/mL (≈ 22.9 µM) | IC95 (HSV-1L2; HSV-1L2, Vero E6, 0.1 PFU/cell): >25.0 µg/mL

2,4-bis-O-galloyl-1,3,6-tri-O-galloyl-β-D-glucose [R7]
CC50 (MDCK cells): 191.01 µg/mL | CC50 (Vero E6 cells): 165.00 µg/mL | IC50 (HSV-2BH): 8.32 µg/mL | IC95 (HSV-2BH): 31.25 µg/mL | CC50 (B95-8 cells): 33 µg/mL | Δ(lgTCID50)max [4]: 2.75 | IC50 [4]: 2.13 µg/mL | IC50 (HSV-1L2): 5.95 µg/mL | IC95 (HSV-1L2): 8.32 µg/mL

CCOC(=O)C1=C[C@@H](OC(CC)CC)[C@H](NC(C)=O)[C@@H](N)C1 [Oseltamivir, reference compound]
CC50 (in vitro [3]): > 10 µg/mL | Δ(lgTCID50)max [4]: 6.0 | IC50 [4, 13]: 0.02 µg/mL (≈ 0.064 µM)

CC(C)(C)[C@H](NC(=O)C(F)(F)F)C(=O)N1C[C@H]2[C@@H]([C@H]1C(=O)N[C@H](C#N)C[C@@H]1CCNC1=O)C2(C)C [Nirmatrelvir, reference compound]
IC50 [9]: 0.1 µg/mL (≈ 0.2 µM) | Δ(lgTCID50)max [9]: 6.0 | CC50 [11]: > 20 µg/mL
